Assay results reported in the NIST ThermoML archive (doi:10.1021/acs.jced.8b01046).
“And” between values parts separate entries of the source, which are not always exact repeats. Equal values may be shown once. ± gives the expanded uncertainty stated by the source.

Legend:
[1] = wn = mass fraction of the nth substance listed; settings: 102 kPa, Liquid, Vibrating tube method
[2] = Liquid; for mass density: Vibrating tube method

Compound: CCCCCCCCCCCC(=O)OCC(COC(=O)CCCCCCCCCCC)OC(=O)CCCCCCCCCCC [1,2,3-propanetriyl tridodecanoate] + CCCCCCCCO
- mass density ([1]; 293.15 K, w1 = 0.019): 826.7 ± 3.3 kg/m3
- mass density ([1]; 293.15 K, w1 = 0.051): 829.5 ± 3.3 kg/m3
- mass density ([1]; 298.15 K, w1 = 0.019): 823.3 ± 3.3 kg/m3
- mass density ([1]; 298.15 K, w1 = 0.051): 826.2 ± 3.3 kg/m3
- mass density ([1]; 303.15 K, w1 = 0.019): 819.7 ± 3.3 kg/m3
- mass density ([1]; 303.15 K, w1 = 0.051): 822.5 ± 3.3 kg/m3
- mass density ([1]; 303.15 K, w1 = 0.096): 826.8 ± 3.3 kg/m3
- mass density ([1]; 303.15 K, w1 = 0.149): 831 ± 3.3 kg/m3
- mass density ([1]; 303.15 K, w1 = 1): 905.1 ± 3.7 kg/m3
- mass density ([1]; 313.15 K, w1 = 0.019): 812.8 ± 3.3 kg/m3
- mass density ([1]; 313.15 K, w1 = 0.051): 815.6 ± 3.3 kg/m3
- mass density ([1]; 313.15 K, w1 = 0.096): 819.7 ± 3.3 kg/m3
- mass density ([1]; 313.15 K, w1 = 0.149): 824 ± 3.3 kg/m3
- mass density ([1]; 313.15 K, w1 = 1): 899.6 ± 3.7 kg/m3
- mass density ([1]; 333.15 K, w1 = 0.019): 798.7 ± 3.2 kg/m3
- mass density ([1]; 333.15 K, w1 = 0.051): 801.5 ± 3.2 kg/m3
- mass density ([1]; 333.15 K, w1 = 0.096): 805.6 ± 3.2 kg/m3
- mass density ([1]; 333.15 K, w1 = 0.149): 809.9 ± 3.3 kg/m3
- mass density ([1]; 333.15 K, w1 = 1): 886.9 ± 3.6 kg/m3
- mass density ([1]; 353.15 K, w1 = 0.019): 784 ± 3.1 kg/m3
- mass density ([1]; 353.15 K, w1 = 0.051): 786.8 ± 3.2 kg/m3
- mass density ([1]; 353.15 K, w1 = 0.096): 790.9 ± 3.2 kg/m3
- mass density ([1]; 353.15 K, w1 = 0.149): 795.2 ± 3.2 kg/m3
- mass density ([1]; 353.15 K, w1 = 1): 870.4 ± 3.5 kg/m3

Compound: CCCCCCCCCC(=O)OCC(COC(=O)CCCCCCCCC)OC(=O)CCCCCCCCC [1,2,3-propanetriyl tridecanoate] + CCCCCCCCO
- mass density ([1]; 293.15 K, w1 = 0.016): 826.5 ± 3.3 kg/m3
- mass density ([1]; 293.15 K, w1 = 0.0385): 828.7 ± 3.3 kg/m3
- mass density ([1]; 293.15 K, w1 = 0.0772): 832.5 ± 3.3 kg/m3
- mass density ([1]; 293.15 K, w1 = 0.1287): 837.4 ± 3.4 kg/m3
- mass density ([1]; 293.15 K, w1 = 1): 921.6 ± 3.7 kg/m3
- mass density ([1]; 298.15 K, w1 = 0.016): 823.1 ± 3.3 kg/m3
- mass density ([1]; 298.15 K, w1 = 0.0385): 825.1 ± 3.3 kg/m3
- mass density ([1]; 298.15 K, w1 = 0.0772): 829 ± 3.3 kg/m3
- mass density ([1]; 298.15 K, w1 = 0.1287): 833.9 ± 3.3 kg/m3
- mass density ([1]; 298.15 K, w1 = 1): 917.9 ± 3.7 kg/m3
- mass density ([1]; 303.15 K, w1 = 0.016): 819.5 ± 3.3 kg/m3
- mass density ([1]; 303.15 K, w1 = 0.0385): 821.6 ± 3.3 kg/m3
- mass density ([1]; 303.15 K, w1 = 0.0772): 825.4 ± 3.3 kg/m3
- mass density ([1]; 303.15 K, w1 = 0.1287): 830.3 ± 3.3 kg/m3
- mass density ([1]; 303.15 K, w1 = 1): 913.6 ± 3.7 kg/m3
- mass density ([1]; 313.15 K, w1 = 0.016): 812.6 ± 3.3 kg/m3
- mass density ([1]; 313.15 K, w1 = 0.0385): 814.7 ± 3.3 kg/m3
- mass density ([1]; 313.15 K, w1 = 0.0772): 818.5 ± 3.3 kg/m3
- mass density ([1]; 313.15 K, w1 = 0.1287): 823.3 ± 3.3 kg/m3
- mass density ([1]; 313.15 K, w1 = 1): 906.2 ± 3.7 kg/m3
- mass density ([1]; 333.15 K, w1 = 0.016): 798.6 ± 3.2 kg/m3
- mass density ([1]; 333.15 K, w1 = 0.0385): 800.7 ± 3.2 kg/m3
- mass density ([1]; 333.15 K, w1 = 0.0772): 804.3 ± 3.2 kg/m3
- mass density ([1]; 333.15 K, w1 = 0.1287): 809.1 ± 3.2 kg/m3
- mass density ([1]; 333.15 K, w1 = 1): 891 ± 3.6 kg/m3
- mass density ([1]; 353.15 K, w1 = 0.016): 783.8 ± 3.1 kg/m3
- mass density ([1]; 353.15 K, w1 = 0.0385): 785.9 ± 3.2 kg/m3
- mass density ([1]; 353.15 K, w1 = 0.0772): 789.5 ± 3.2 kg/m3
- mass density ([1]; 353.15 K, w1 = 0.1287): 794.4 ± 3.2 kg/m3
- mass density ([1]; 353.15 K, w1 = 1): 875.9 ± 3.6 kg/m3

Compound: CCCCCCCCCC(=O)OCC(COC(=O)CCCCCCCCC)OC(=O)CCCCCCCCC [1,2,3-propanetriyl tridecanoate]
- mass density ([2]; 293.15 K, 102 kPa): 921.6 ± 3.7 kg/m3
- mass density ([2]; 298.15 K, 102 kPa): 917.9 ± 3.7 kg/m3
- mass density ([2]; 303.15 K, 102 kPa): 913.6 ± 3.7 kg/m3
- mass density ([2]; 313.15 K, 102 kPa): 906.2 ± 3.7 kg/m3
- mass density ([2]; 333.15 K, 102 kPa): 891 ± 3.6 kg/m3
- vapor or sublimation pressure ([2]; 348.5 K, Langmuir technique): 1.39e-08 ± 5.6e-09 kPa and 1.36e-08 ± 5.5e-09 kPa
- mass density ([2]; 353.15 K, 102 kPa): 875.9 ± 3.6 kg/m3
- vapor or sublimation pressure ([2]; 353.48 K, Langmuir technique): 2.94e-08 ± 1.2e-08 kPa and 2.9e-08 ± 1.2e-08 kPa
- vapor or sublimation pressure ([2]; 358.38 K, Langmuir technique): 5.99e-08 ± 2.4e-08 kPa
- vapor or sublimation pressure ([2]; 363.18 K, Langmuir technique): 1.19e-07 ± 4.8e-08 kPa and 1.2e-07 ± 4.9e-08 kPa
- vapor or sublimation pressure ([2]; 367.8 K, Langmuir technique): 2.27e-07 ± 9.2e-08 kPa
- vapor or sublimation pressure ([2]; 367.81 K, Langmuir technique): 2.23e-07 ± 9.1e-08 kPa

Compound: CCCCCCCC(=O)OCC(COC(=O)CCCCCCC)OC(=O)CCCCCCC [1,2,3-propanetriol trioctanoate]
- mass density ([2]; 293.15 K, 102 kPa): 952.7 ± 3.8 kg/m3
- mass density ([2]; 298.15 K, 102 kPa): 948.9 ± 3.8 kg/m3
- mass density ([2]; 298.15 K, 120 kPa): 949.9 ± 3.8 kg/m3
- mass density ([2]; 298.15 K, 9830 kPa): 955.5 ± 3.8 kg/m3
- mass density ([2]; 298.15 K, 20100 kPa): 961.3 ± 3.9 kg/m3
- mass density ([2]; 298.15 K, 30020 kPa): 966.6 ± 3.9 kg/m3
- mass density ([2]; 298.15 K, 40050 kPa): 971.9 ± 3.9 kg/m3
- mass density ([2]; 298.15 K, 50040 kPa): 977.1 ± 3.9 kg/m3
- mass density ([2]; 303.15 K, 102 kPa): 944.9 ± 3.8 kg/m3
- mass density ([2]; 313.15 K, 102 kPa): 937.4 ± 3.8 kg/m3
- mass density ([2]; 333.15 K, 102 kPa): 922.5 ± 3.7 kg/m3
- mass density ([2]; 353.15 K, 102 kPa): 907.7 ± 3.6 kg/m3
- vapor or sublimation pressure ([2]; 403.2 K, Transpiration method): 0.0002069 ± 2.2e-05 kPa
- vapor or sublimation pressure ([2]; 408.2 K, Transpiration method): 0.0003133 ± 3.4e-05 kPa
- vapor or sublimation pressure ([2]; 413.2 K, Transpiration method): 0.0004698 ± 5.1e-05 kPa
- vapor or sublimation pressure ([2]; 423.2 K, Transpiration method): 0.001006 ± 0.00011 kPa
- vapor or sublimation pressure ([2]; 433.2 K, Transpiration method): 0.001977 ± 0.00021 kPa
- vapor or sublimation pressure ([2]; 443.2 K, Transpiration method): 0.004016 ± 0.00043 kPa
- vapor or sublimation pressure ([2]; 448.2 K, Transpiration method): 0.005491 ± 0.00059 kPa

Compound: CCCCCCCCCCCC(=O)OCC(COC(=O)CCCCCCCCCCC)OC(=O)CCCCCCCCCCC [1,2,3-propanetriyl tridodecanoate]
- mass density ([2]; 303.15 K, 100 kPa): 905.1 ± 3.7 kg/m3
- mass density ([2]; 313.15 K, 100 kPa): 899.6 ± 3.7 kg/m3
- mass density ([2]; 333.15 K, 100 kPa): 886.9 ± 3.6 kg/m3
- mass density ([2]; 353.15 K, 100 kPa): 870.4 ± 3.5 kg/m3
